Source: US11077100B2, “Tetrahydroquinoline derivatives as P2X7 receptor antagonists” (RaQualia Pharma Inc., priority 2017, dated 2021)

How the values were obtained:
rat P2X7 = rat P2X7 (Rattus norvegicus (Rat), UniProt Q64663); experiment: Rat P2X7 functional assay (Ca2+ influx, Fluo-4, FDSS); assay type: cell-based; conditions: HEK293 cells stably expressing rat P2X7; BzATP final 10 microM; 7-point dose-response; read-out: Antagonistic activities with respect to the rat P2X7 receptor (IC50)
Method in brief: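 HEK293 cells stably expressing rat P2X7 (5,000/well, plated 24 h before) loaded with Fluo-4; compounds preincubated 10 min at room temperature, then Ca2+ rise after 10 microM BzATP (final) read on FDSS (480/540 nm). IC50 from 7-point curves, duplicate wells.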

human P2X7 = human P2X7 (Homo sapiens (Human), UniProt Q99572); experiment: Human P2X7 functional assay (Ca2+ influx, Fluo-4, FDSS); assay type: cell-based; conditions: antagonistic activity with respect to the human P2X7 receptor; BzATP final concentration 80 microM
Sequence of human P2X7 (Q99572 whole entry): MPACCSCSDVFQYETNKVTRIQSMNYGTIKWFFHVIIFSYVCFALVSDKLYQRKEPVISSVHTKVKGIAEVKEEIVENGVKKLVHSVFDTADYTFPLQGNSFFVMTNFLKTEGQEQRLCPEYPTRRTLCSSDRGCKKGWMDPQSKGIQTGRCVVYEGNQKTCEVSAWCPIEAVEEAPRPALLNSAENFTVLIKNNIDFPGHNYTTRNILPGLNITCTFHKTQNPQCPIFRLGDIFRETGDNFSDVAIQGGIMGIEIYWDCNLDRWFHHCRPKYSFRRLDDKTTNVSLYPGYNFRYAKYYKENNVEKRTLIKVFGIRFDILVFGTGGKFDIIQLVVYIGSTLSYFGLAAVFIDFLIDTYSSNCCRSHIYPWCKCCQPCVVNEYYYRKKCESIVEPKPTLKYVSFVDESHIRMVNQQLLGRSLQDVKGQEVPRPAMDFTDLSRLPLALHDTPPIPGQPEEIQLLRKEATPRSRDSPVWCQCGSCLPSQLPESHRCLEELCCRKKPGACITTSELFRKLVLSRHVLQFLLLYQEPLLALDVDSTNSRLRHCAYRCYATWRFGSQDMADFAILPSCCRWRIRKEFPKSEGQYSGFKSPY
Method in brief: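 HEK293 cells stably expressing C-terminally FLAG-tagged human P2X7, loaded with Fluo-4. Compounds were preincubated for 10 min at room temperature, then 80 μM BzATP (final) was added and Ca2+ fluorescence read at 540 nm (480 nm excitation) by FDSS. IC50 values come from 7-point curves, duplicate wells.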

Sequence of rat P2X7 (Q64663 whole entry): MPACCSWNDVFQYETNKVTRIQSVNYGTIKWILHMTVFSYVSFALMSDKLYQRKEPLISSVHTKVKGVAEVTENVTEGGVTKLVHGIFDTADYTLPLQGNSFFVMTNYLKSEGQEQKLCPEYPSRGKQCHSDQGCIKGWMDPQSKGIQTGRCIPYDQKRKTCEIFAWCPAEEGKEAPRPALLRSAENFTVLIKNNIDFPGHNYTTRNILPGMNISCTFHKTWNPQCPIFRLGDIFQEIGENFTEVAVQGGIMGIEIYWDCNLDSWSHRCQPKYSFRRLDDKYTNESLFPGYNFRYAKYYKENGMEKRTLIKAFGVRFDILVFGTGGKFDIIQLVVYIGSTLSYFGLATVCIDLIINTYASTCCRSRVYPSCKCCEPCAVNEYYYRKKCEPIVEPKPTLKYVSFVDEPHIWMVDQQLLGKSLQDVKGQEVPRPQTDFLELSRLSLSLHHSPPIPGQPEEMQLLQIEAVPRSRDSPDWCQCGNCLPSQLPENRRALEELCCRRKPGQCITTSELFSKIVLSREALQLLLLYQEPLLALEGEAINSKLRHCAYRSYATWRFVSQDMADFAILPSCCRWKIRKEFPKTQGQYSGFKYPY

Work on `O=C(NCc1ccc(Cl)cc1Cl)[C@]1(F)CC[C@H](OCC(O)CO)c2ncccc21` (stereo partly drawn) [Example 349, (5S,8S)—N-(2,4-dichlorobenzyl)-8-(2,3-dihydroxypropoxy)-5-fluoro-5,6,7,8-tetrahydroquinoline-5-carboxamide] yielded an IC50 (rat P2X7) of under 1000 nM and an IC50 (human P2X7) of under 50 nM.

In the case of `O=C(NCc1cccc(C(F)(F)F)c1Cl)[C@]1(F)CC[C@H](O)c2ncccc21` [Example 129, (5S,8S)-N-(2-chloro-3-(trifluoromethyl)benzyl)-5-fluoro-8-hydroxy-5,6,7,8-tetrahydroquinoline-5-carboxamide], the IC50 (rat P2X7) is reported as under 1000 nM and the IC50 (human P2X7) is reported as under 50 nM.

`O=C1CC[C@@](F)(C(=O)NCc2ccc(C(F)(F)F)cc2Cl)c2cccnc21` [Example 253, (S)-N-(2-chloro-4-(trifluoromethyl)benzyl)-5-fluoro-8-oxo-5,6,7,8-tetrahydroquinoline-5-carboxamide] gave an IC50 (rat P2X7) of under 1000 nM and an IC50 (human P2X7) of under 50 nM.

`O=C(NCc1ccc(Cl)cc1Cl)[C@@]1(F)CC[C@@](O)(CO)c2ncccc21` [Example 303, (5R,8S)-N-(2,4-dichlorobenzyl)-5-fluoro-8-hydroxy-8-(hydroxymethyl)-5,6,7,8-tetrahydroquinoline-5-carboxamide] was tested, and the IC50 (rat P2X7) was under 1000 nM and the IC50 (human P2X7) was 1000 to 3000 nM.

For `O=C(NCc1ccc(Br)cc1F)[C@@H]1CC[C@H](O)c2ncccc21` [Example 80, (5R,8S)-N-(4-bromo-2-fluorobenzyl)-8-hydroxy-5,6,7,8-tetrahydroquinoline-5-carboxamide], the IC50 (rat P2X7) was under 1000 nM and the IC50 (human P2X7) was 50 to 100 nM.

`C[C@@H](NC(=O)[C@]1(F)CC[C@@](O)(CO)c2ncccc21)c1ccc(Cl)cc1Cl` [Example 326, (5S,8S)-N-((R)-1-(2,4-dichlorophenyl)ethyl)-5-fluoro-8-hydroxy-8-(hydroxymethyl)-5,6,7,8-tetrahydroquinoline-5-carboxamide] gave an IC50 (rat P2X7) of under 1000 nM and an IC50 (human P2X7) of under 50 nM.

In the case of `O=C(NCc1cccc(C(F)(F)F)c1Cl)C1(O)CCC(O)c2ncccc21` (stereo not shown) [Example 25, N-(2-chloro-3-(trifluoro-methyl)benzyl)-5,8-dihydroxy-5,6,7,8-tetrahydroquinoline-5-carboxamide], the IC50 (rat P2X7) is reported as under 1000 nM and the IC50 (human P2X7) is reported as 101 to 300 nM.

`Cc1cc(Cl)cc(Cl)c1CNC(=O)[C@@H]1C[C@@H](O)c2ncccc21` [Example 97, (5R,7R)-N-(2,4-dichloro-6-methylbenzyl)-7-hy-droxy-6,7-dihydro-5H-cyclopenta[b]pyridin-5-carboxamide] was tested, and the IC50 (rat P2X7) was under 1000 nM and the IC50 (human P2X7) was under 50 nM.
